Measured values from ChEMBL document CHEMBL3621068, “Synthesis and biological evaluation of a new class of quinazolinoneazoles as potential antimicrobial agents and their interactions with calf thymus DNA and human serum albumin” (Medchemcomm, 2015).
Converted amounts (≈) assume the structure as drawn.

Tests used:
Assay type in all cases: functional
Cyberlindnera jadinii = assay: Antifungal activity against Candida utilis ATCC 9950 after 24 hrs by micro broth dilution assay; conditions: Williopsis jadinii, ATCC 9950, 24 h
Aspergillus flavus = assay: Antifungal activity against Aspergillus flavus ATCC 204304 after 24 hrs by micro broth dilution assay; conditions: ATCC 204304, 24 h
Saccharomyces cerevisiae = assay: Antifungal activity against Beer yeast ATCC 9763 after 24 hrs by micro broth dilution assay; conditions: ATCC 9763, 24 h
Candida albicans = assay: Antifungal activity against Candida albicans ATCC 10231 after 24 hrs by micro broth dilution assay; conditions: ATCC 10231, 24 h
Candida = assay: Antifungal activity against Candida mycoderma ATCC 9888 after 24 hrs by micro broth dilution assay; conditions: ATCC 9888, 24 h
Micrococcus luteus = assay: Antibacterial activity against Micrococcus luteus ATCC 4698 after 24 hrs by micro broth dilution assay; conditions: ATCC 4698, 24 h
Staphylococcus aureus [1] = assay: Antibacterial activity against methicillin-resistant Staphylococcus aureus N315 after 24 hrs by micro broth dilution assay; conditions: N315, 24 h
Staphylococcus aureus [2] = assay: Antibacterial activity against Staphylococcus aureus ATCC 25923 after 24 hrs by micro broth dilution assay; conditions: ATCC 25923, 24 h
Bacillus spizizenii = assay: Antibacterial activity against Bacillus subtilis ATCC 6633 after 24 hrs by micro broth dilution assay; conditions: ATCC 6633, 24 h
Pseudomonas aeruginosa = assay: Antibacterial activity against Pseudomonas aeruginosa ATCC 27853 a after 24 hrs by micro broth dilution assay; conditions: ATCC 27853, 24 h
Escherichia coli = assay: Antibacterial activity against Escherichia coli DH52 after 24 hrs by micro broth dilution assay; conditions: DH52, 24 h
Bacillus sp. = assay: Antibacterial activity against Bacillus proteus ATCC 13315 after 24 hrs by micro broth dilution assay; conditions: Bacillus sp. (in: firmicutes), ATCC 13315, 24 h
[3] = Antibacterial activity against Eberthella typhosa ATCC 14028 after 24 hrs by micro broth dilution assay; conditions: ATCC 14028, 24 h

SMILES | MIC (Cyberlindnera jadinii) [µM] | MIC (Aspergillus flavus) [µM] | MIC (Saccharomyces cerevisiae) [µM] | MIC (Candida albicans) [µM] | MIC (Candida) [µM] | MIC (Micrococcus luteus) [µM] | MIC (Staphylococcus aureus [1]) [µM] | MIC (Staphylococcus aureus [2]) [µM] | MIC (Bacillus spizizenii) [µM] | MIC (Pseudomonas aeruginosa) [µM] | MIC (Escherichia coli) [µM] | MIC (Bacillus sp.) [µM] | MIC [3] [µM]
O=c1c2ccc(Cl)cc2ncn1CCCCCCCCCCBr | 320 (≈ 128 µg/mL) | > 1280 | 640 (≈ 256 µg/mL) | > 1280 | > 1280 | 320 (≈ 128 µg/mL) | 640 (≈ 256 µg/mL) | > 1280 | 1280 (≈ 512 µg/mL) | > 1280 | 640 (≈ 256 µg/mL) | 320 (≈ 128 µg/mL) | > 1280
O=c1c2ccc(Cl)cc2ncn1CCn1cnc([N+](=O)[O-])c1 | 400 (≈ 128 µg/mL) | > 1600 | 200 (≈ 63.9 µg/mL) | 100 (≈ 32 µg/mL) | 800 (≈ 256 µg/mL) | 50 (≈ 16 µg/mL) | 200 (≈ 63.9 µg/mL) | 800 (≈ 256 µg/mL) | 50 (≈ 16 µg/mL) | > 1600 | 800 (≈ 256 µg/mL) | 400 (≈ 128 µg/mL) | 400 (≈ 128 µg/mL)
O=c1c2ccc(F)cc2ncn1CCn1cnc([N+](=O)[O-])c1 | 420 (≈ 127 µg/mL) | > 1690 | 210 (≈ 63.7 µg/mL) | 50 (≈ 15.2 µg/mL) | 840 (≈ 255 µg/mL) | 50 (≈ 15.2 µg/mL) | 210 (≈ 63.7 µg/mL) | 840 (≈ 255 µg/mL) | 50 (≈ 15.2 µg/mL) | > 1690 | 840 (≈ 255 µg/mL) | 420 (≈ 127 µg/mL) | 420 (≈ 127 µg/mL)
O=c1c2ccc(Cl)cc2ncn1CCCCBr | 410 (≈ 129 µg/mL) | > 1620 | 810 (≈ 256 µg/mL) | > 1620 | > 1620 | 810 (≈ 256 µg/mL) | 810 (≈ 256 µg/mL) | > 1620 | 1620 (≈ 511 µg/mL) | > 1620 | 810 (≈ 256 µg/mL) | 410 (≈ 129 µg/mL) | > 1620
O=c1c2ccc(Cl)cc2ncn1CCCCCn1cnc([N+](=O)[O-])c1 | 350 (≈ 127 µg/mL) | 710 (≈ 257 µg/mL) | 90 (≈ 32.6 µg/mL) | 90 (≈ 32.6 µg/mL) | 180 (≈ 65.1 µg/mL) | 40 (≈ 14.5 µg/mL) | 180 (≈ 65.1 µg/mL) | 180 (≈ 65.1 µg/mL) | 40 (≈ 14.5 µg/mL) | 350 (≈ 127 µg/mL) | 350 (≈ 127 µg/mL) | 350 (≈ 127 µg/mL) | 350 (≈ 127 µg/mL)
O=c1c2ccc(F)cc2ncn1CCCCCCBr | 390 (≈ 128 µg/mL) | 1560 (≈ 510 µg/mL) | 780 (≈ 255 µg/mL) | 780 (≈ 255 µg/mL) | > 1560 | 390 (≈ 128 µg/mL) | 390 (≈ 128 µg/mL) | > 1560 | 1560 (≈ 510 µg/mL) | > 1560 | 780 (≈ 255 µg/mL) | 390 (≈ 128 µg/mL) | > 1560
Cc1ncc([N+](=O)[O-])n1CCCCCn1cnc2cc(Cl)ccc2c1=O | 20 (≈ 7.52 µg/mL) | 20 (≈ 7.52 µg/mL) | 40 (≈ 15 µg/mL) | 20 (≈ 7.52 µg/mL) | 20 (≈ 7.52 µg/mL) | 40 (≈ 15 µg/mL) | 20 (≈ 7.52 µg/mL) | 40 (≈ 15 µg/mL) | 20 (≈ 7.52 µg/mL) | > 1360 | 20 (≈ 7.52 µg/mL) | 20 (≈ 7.52 µg/mL) | 20 (≈ 7.52 µg/mL)
O=c1c2ccc(Cl)cc2ncn1CCCCn1cnc([N+](=O)[O-])c1 | 370 (≈ 129 µg/mL) | 740 (≈ 257 µg/mL) | 90 (≈ 31.3 µg/mL) | 90 (≈ 31.3 µg/mL) | 740 (≈ 257 µg/mL) | 50 (≈ 17.4 µg/mL) | 180 (≈ 62.6 µg/mL) | 370 (≈ 129 µg/mL) | 50 (≈ 17.4 µg/mL) | 740 (≈ 257 µg/mL) | 740 (≈ 257 µg/mL) | 370 (≈ 129 µg/mL) | 370 (≈ 129 µg/mL)
Cc1ncc([N+](=O)[O-])n1CCCCn1cnc2cc(F)ccc2c1=O | 50 (≈ 17.3 µg/mL) | 20 (≈ 6.91 µg/mL) | 50 (≈ 17.3 µg/mL) | 20 (≈ 6.91 µg/mL) | 50 (≈ 17.3 µg/mL) | 50 (≈ 17.3 µg/mL) | 20 (≈ 6.91 µg/mL) | 50 (≈ 17.3 µg/mL) | 50 (≈ 17.3 µg/mL) | > 1480 | 50 (≈ 17.3 µg/mL) | 20 (≈ 6.91 µg/mL) | 20 (≈ 6.91 µg/mL)
O=c1c2ccc(Cl)cc2ncn1CCCCCBr | 390 (≈ 129 µg/mL) | > 1550 | 780 (≈ 257 µg/mL) | > 1550 | > 1550 | 390 (≈ 129 µg/mL) | 780 (≈ 257 µg/mL) | > 1550 | 1550 (≈ 511 µg/mL) | > 1550 | 1550 (≈ 511 µg/mL) | 390 (≈ 129 µg/mL) | > 1550
Cc1ncc([N+](=O)[O-])n1CCCCCCn1cnc2cc(Cl)ccc2c1=O | 20 (≈ 7.8 µg/mL) | 40 (≈ 15.6 µg/mL) | 20 (≈ 7.8 µg/mL) | 20 (≈ 7.8 µg/mL) | 20 (≈ 7.8 µg/mL) | 40 (≈ 15.6 µg/mL) | 20 (≈ 7.8 µg/mL) | 20 (≈ 7.8 µg/mL) | 40 (≈ 15.6 µg/mL) | > 1310 | 40 (≈ 15.6 µg/mL) | 20 (≈ 7.8 µg/mL) | 20 (≈ 7.8 µg/mL)
O=c1c2ccc(F)cc2ncn1CCCCBr | 430 (≈ 129 µg/mL) | 1710 (≈ 512 µg/mL) | 860 (≈ 257 µg/mL) | 860 (≈ 257 µg/mL) | > 1710 | 860 (≈ 257 µg/mL) | 430 (≈ 129 µg/mL) | > 1710 | 1710 (≈ 512 µg/mL) | > 1710 | 1710 (≈ 512 µg/mL) | 860 (≈ 257 µg/mL) | > 1710
